Legend:
murine donor heart [1] = test: murine donor heart, 16 h of cold storage followed by ex vivo perfusion; conditions: 50 μM, 60 minutes of reperfusion, N=8
Excerpt: FIG. 2. […] N=8 at each time point.

murine donor heart [2] = test: murine donor heart, 16 h of cold storage followed by 24 h of heterotopic transplantation; format: in vivo; conditions: 50 μM in storage, n=8
Procedure: FIG. 4. […] Donor heart was isolated and store with or without canrenone for 16 hr, then the donor hearts were heterotopic transplanted to receipt cervical region. max dp/dt (contraction) and min dp/dt (relaxation) were calculated by average the max/min dp/dt for 1 minute period after 24 hr of transplantation using Millar Catheter. *P<0.05, n=8.

pig donor heart = test: pig donor heart, 10 h of cold storage followed by ex vivo perfusion; conditions: 50 μM in HTK; 10 h of cold storage on ice, 30 minutes of reperfusion ex vivo; N=4
Procedure: FIG. 5. […] Pig hearts were perfused with 1 L HTK solution after cross clamp. Addition 2 L of HTK with or without canrenone were perfused and stored for 10 hr on ice. Pig hearts were perfused in ex vivo system with blood and Krebs buffer (1:4, hemoglobin concentration: […]). max dp/dt (contraction) and min dp/dt (relaxation) were calculated by average the max/min dp/dt for 10 minute period after 30 minutes of reperfusion using Millar Catheter. *P<0.05, **P<0.01. N=4.

heart failure = conditions: cited from earlier work
cardiomyocytes = conditions: IR conditions; cited from earlier work
heart = conditions: rats; cited from earlier work
[3] = large epidemiologic studies; cited from earlier work
Irg1 = Irg1 expression in cold-stored donor heart; conditions: cold storage of donor heart, VPA treatment
Excerpt: (§1) FIG. 7, panels A-C. […] Panels B and C.

[4] = system: mineralocorticoid receptor (MR); conditions: cited from earlier work
donor heart = donor heart function after 16 hr of cold storage followed by reperfusion (VPA)
Excerpt: as §1

[5] = system: heart, kidneys, lung and liver; conditions: cited from earlier work
[6] = system: ischemia reperfusion (IR) rats; conditions: cited from earlier work; for heart function: ischemia reperfusion (IR) rats

Q: Which “donor heart function, max dp/dt (contraction) and min dp/dt (relaxation)” value (shortened to “donor heart function, max dp/dt”) (murine donor heart [1]) does the source give for `C[C@]12CCC(=O)C=C1C=C[C@@H]1[C@@H]2CC[C@@]2(C)[C@H]1CC[C@@]21CCC(=O)O1` [Canrenone, canrenone] here?
A: improves murine donor heart function

Q: And the “donor heart function, max dp/dt” value (murine donor heart [2])?
A: improve murine donor heart function

Q: What about the “donor heart function, max dp/dt” value (pig donor heart) of the same compound?
A: improve pig donor heart function

Q: Which heart failure (heart failure) does the source give for `Cc1sc2c(c1C)C(c1ccc(Cl)cc1)=N[C@@H](CC(=O)OC(C)(C)C)c1nnc(C)n1-2` [JQ-1] here?
A: effectively halt heart failure

Q: What about the protection of cardiomyocytes (cardiomyocytes) of the same compound?
A: may protect cardiomyocytes

Q: For `CCCC(CCC)C(=O)O` [VPA, valproic acid], which “protection of the heart against AMI injury” value (heart) is on record?
A: protects the heart against AMI injury

Q: And the “incidence of stroke and AMI” value [3]?
A: reduce the incidence of stroke and AMI

Q: What about the Irg1 expression (Irg1) of the same compound?
A: further stimulates Irg1 upregulation

Q: What about the “acetylation of the mineralocorticoid receptor (MR)” value [4] of the same compound?
A: affect the acetylation of the mineralocorticoid receptor

Q: What about the “effect of VPA on donor heart function with Irg1 deletion” value (donor heart; Irg1 deletion, 16 hr of cold storage followed by reperfusion) of the same compound?
A: Irg1 deletion reduce the protective effect

Q: And the “donor heart ischemic tolerance” value (donor heart; cold storage of donor heart)?
A: improve donor heart ischemic tolerance

Q: And the fibrosis [5]?
A: reduce fibrosis

Q: Which heart function [6] does the source give for `CC(=O)O` [acetate] here?
A: improve heart function

Q: What does the source list for `CCCCCCCC(=O)O` [octanoate]?
A: heart functional recovery ([6]; 160 mg/kg i.p. injected once at the time of reperfusion): significant heart functional recovery; heart function [6]: improve heart function

Source: patent publication US20230241076A1, “HISTONE-ACETYLATION-MODULATING AGENTS FOR THE TREATMENT AND PREVENTION OF ORGAN INJURY” (The Regents of the University of Michigan, priority 2020, published 2023)
